# Like-named read-outs stand apart in the source and are kept apart here.
# What was measured:
# Assay in all cases: Test E pre-/postemergence plant response
# Assay type in all cases: in vivo
# [1] = tested on: spring wheat (Triticum aestivum); conditions: scale 0 to 100, read-out: Plant response rating, Wheat, Spring; for plant injury at 16 g/ha: 16 g ai/ha; for plant injury at 62 g/ha: 62 g ai/ha; for plant injury at 125 g/ha: 125 g ai/ha
# Outline: (§1)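 Pre-emergence: seeds sown in silt loam soil and sprayed with test chemicals in a non-phytotoxic solvent/surfactant mix. Post-emergence: plants at 2–18 cm (1- to 4-leaf stage) in peat/vermiculite medium treated with the same formulation. Visual rating versus controls after 7–21 days, 0 (no effect) to 100 (complete control).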
# [2] = tested on: Italian ryegrass (Lolium multiflorum); conditions: scale 0 to 100, read-out: Plant response rating, Ryegrass, Italian; for pest or weed control at 16 g/ha: 16 g ai/ha; for pest or weed control at 31 g/ha: 31 g ai/ha; for pest or weed control at 62 g/ha: 62 g ai/ha; for pest or weed control at 125 g/ha: 125 g ai/ha
# Outline: as §1
# [3] = tested on: chickweed (common chickweed, Stellaria media); conditions: scale 0 to 100, read-out: Plant response rating, Chickweed; for pest or weed control at 16 g/ha: 16 g ai/ha; for pest or weed control at 31 g/ha: 31 g ai/ha; for pest or weed control at 62 g/ha: 62 g ai/ha; for pest or weed control at 125 g/ha: 125 g ai/ha
# Outline: as §1
# [4] = tested on: oilseed rape (Brassica napus); conditions: scale 0 to 100, read-out: Plant response rating, Oilseed Rape; for plant injury at 16 g/ha: 16 g ai/ha; for plant injury at 31 g/ha: 31 g ai/ha; for plant injury at 62 g/ha: 62 g ai/ha; for plant injury at 125 g/ha: 125 g ai/ha
# Outline: as §1
# [5] = tested on: pigweed (Amaranthus retroflexus); conditions: scale 0 to 100, read-out: Plant response rating, Pigweed; for pest or weed control at 16 g/ha: 16 g ai/ha; for pest or weed control at 31 g/ha: 31 g ai/ha; for pest or weed control at 62 g/ha: 62 g ai/ha; for pest or weed control at 125 g/ha: 125 g ai/ha
# Outline: as §1
# [6] = tested on: galium (catchweed bedstraw, Galium aparine); conditions: scale 0 to 100, read-out: Plant response rating, Galium; for pest or weed control at 16 g/ha: 16 g ai/ha; for pest or weed control at 31 g/ha: 31 g ai/ha; for pest or weed control at 62 g/ha: 62 g ai/ha; for pest or weed control at 125 g/ha: 125 g ai/ha
# Outline: as §1
# [7] = tested on: field violet (Viola arvensis); conditions: scale 0 to 100, read-out: Plant response rating, Field Violet; for pest or weed control at 16 g/ha: 16 g ai/ha; for pest or weed control at 31 g/ha: 31 g ai/ha; for pest or weed control at 62 g/ha: 62 g ai/ha; for pest or weed control at 125 g/ha: 125 g ai/ha
# Outline: as §1
# [8] = tested on: winter barley (Hordeum vulgare); conditions: scale 0 to 100, read-out: Plant response rating, Barley, Winter; for plant injury at 16 g/ha: 16 g ai/ha; for plant injury at 31 g/ha: 31 g ai/ha; for plant injury at 62 g/ha: 62 g ai/ha; for plant injury at 125 g/ha: 125 g ai/ha
# Outline: as §1
# [9] = tested on: lambsquarters (Chenopodium album); conditions: scale 0 to 100, read-out: Plant response rating, Lambsquarters; for pest or weed control at 16 g/ha: 16 g ai/ha; for pest or weed control at 31 g/ha: 31 g ai/ha; for pest or weed control at 62 g/ha: 62 g ai/ha; for pest or weed control at 125 g/ha: 125 g ai/ha
# Outline: as §1
# [10] = tested on: green foxtail (Setaria viridis); conditions: scale 0 to 100, read-out: Plant response rating, Foxtail, Green; for pest or weed control at 16 g/ha: 16 g ai/ha; for pest or weed control at 31 g/ha: 31 g ai/ha; for pest or weed control at 62 g/ha: 62 g ai/ha; for pest or weed control at 125 g/ha: 125 g ai/ha
# Outline: as §1
smiles,measurement,setting,value
"Fc1cccc(Oc2ncc(Cl)cn2)c1-c1cc(C(F)F)no1 [Compound 144, 5-chloro-2-[2-[3-(difluoromethyl)-5-isoxazolyl]-3-fluorophenoxy]pyrimidine]",plant injury at 16 g/ha,"[1]; post-emergence, Postemergence",25%
same,plant injury at 31 g/ha,"[1]; post-emergence, 31 g ai/ha, Postemergence",35%
same,plant injury at 62 g/ha,"[1]; post-emergence, Postemergence",45%
same,plant injury at 125 g/ha,"[1]; post-emergence, Postemergence",75%
same,plant injury at 16 g/ha,"[1]; pre-emergence, Preemergence",5%
same,plant injury at 62 g/ha,"[1]; pre-emergence, Preemergence",40%
same,plant injury at 125 g/ha,"[1]; pre-emergence, Preemergence",55%
same,pest or weed control at 16 g/ha,"[2]; post-emergence, Postemergence",5%
same,pest or weed control at 31 g/ha,"[2]; post-emergence, Postemergence",15%
same,pest or weed control at 62 g/ha,"[2]; post-emergence, Postemergence",40%
same,pest or weed control at 125 g/ha,"[2]; post-emergence, Postemergence",65%
same,pest or weed control at 16 g/ha,"[2]; pre-emergence, Preemergence",10%
same,pest or weed control at 31 g/ha,"[2]; pre-emergence, Preemergence",25%
same,pest or weed control at 62 g/ha,"[2]; pre-emergence, Preemergence",70%
same,pest or weed control at 125 g/ha,"[2]; pre-emergence, Preemergence",100%
same,pest or weed control at 16 g/ha,"[3]; post-emergence, Postemergence",85%
same,pest or weed control at 31 g/ha,"[3]; post-emergence, Postemergence",100%
same,pest or weed control at 62 g/ha,"[3]; post-emergence, Postemergence",100%
same,pest or weed control at 125 g/ha,"[3]; post-emergence, Postemergence",100%
same,pest or weed control at 16 g/ha,"[3]; pre-emergence, Preemergence",100%
same,pest or weed control at 31 g/ha,"[3]; pre-emergence, Preemergence",100%
same,pest or weed control at 62 g/ha,"[3]; pre-emergence, Preemergence",100%
same,pest or weed control at 125 g/ha,"[3]; pre-emergence, Preemergence",100%
same,plant injury at 16 g/ha,"[4]; post-emergence, Postemergence",100%
same,plant injury at 31 g/ha,"[4]; post-emergence, Postemergence",100%
same,plant injury at 62 g/ha,"[4]; post-emergence, Postemergence",100%
same,plant injury at 125 g/ha,"[4]; post-emergence, Postemergence",100%
same,plant injury at 16 g/ha,"[4]; pre-emergence, Preemergence",35%
same,plant injury at 31 g/ha,"[4]; pre-emergence, Preemergence",80%
same,plant injury at 62 g/ha,"[4]; pre-emergence, Preemergence",100%
same,plant injury at 125 g/ha,"[4]; pre-emergence, Preemergence",100%
same,pest or weed control at 16 g/ha,"[5]; post-emergence, Postemergence",98%
same,pest or weed control at 31 g/ha,"[5]; post-emergence, Postemergence",100%
same,pest or weed control at 62 g/ha,"[5]; post-emergence, Postemergence",100%
same,pest or weed control at 125 g/ha,"[5]; post-emergence, Postemergence",100%
same,pest or weed control at 16 g/ha,"[5]; pre-emergence, Preemergence",100%
same,pest or weed control at 31 g/ha,"[5]; pre-emergence, Preemergence",100%
same,pest or weed control at 62 g/ha,"[5]; pre-emergence, Preemergence",100%
same,pest or weed control at 125 g/ha,"[5]; pre-emergence, Preemergence",100%
same,pest or weed control at 16 g/ha,"[6]; post-emergence, Postemergence",80%
same,pest or weed control at 31 g/ha,"[6]; post-emergence, Postemergence",95%
same,pest or weed control at 62 g/ha,"[6]; post-emergence, Postemergence",100%
same,pest or weed control at 125 g/ha,"[6]; post-emergence, Postemergence",100%
same,pest or weed control at 16 g/ha,"[6]; pre-emergence, Preemergence",20%
same,pest or weed control at 31 g/ha,"[6]; pre-emergence, Preemergence",70%
same,pest or weed control at 62 g/ha,"[6]; pre-emergence, Preemergence",100%
same,pest or weed control at 125 g/ha,"[6]; pre-emergence, Preemergence",100%
same,pest or weed control at 16 g/ha,"[7]; post-emergence, Postemergence",95%
same,pest or weed control at 31 g/ha,"[7]; post-emergence, Postemergence",90%
same,pest or weed control at 62 g/ha,"[7]; post-emergence, Postemergence",100%
same,pest or weed control at 125 g/ha,"[7]; post-emergence, Postemergence",100%
same,pest or weed control at 16 g/ha,"[7]; pre-emergence, Preemergence",95%
same,pest or weed control at 31 g/ha,"[7]; pre-emergence, Preemergence",100%
same,pest or weed control at 62 g/ha,"[7]; pre-emergence, Preemergence",100%
same,pest or weed control at 125 g/ha,"[7]; pre-emergence, Preemergence",100%
same,plant injury at 16 g/ha,"[8]; post-emergence, Postemergence",30%
same,plant injury at 31 g/ha,"[8]; post-emergence, Postemergence",20%
same,plant injury at 62 g/ha,"[8]; post-emergence, Postemergence",35%
same,plant injury at 125 g/ha,"[8]; post-emergence, Postemergence",45%
same,plant injury at 16 g/ha,"[8]; pre-emergence, Preemergence",30%
same,plant injury at 31 g/ha,"[8]; pre-emergence, Preemergence",35%
same,plant injury at 62 g/ha,"[8]; pre-emergence, Preemergence",55%
same,plant injury at 125 g/ha,"[8]; pre-emergence, Preemergence",55%
same,pest or weed control at 16 g/ha,"[9]; post-emergence, Postemergence",80%
same,pest or weed control at 31 g/ha,"[9]; post-emergence, Postemergence",95%
same,pest or weed control at 62 g/ha,"[9]; post-emergence, Postemergence",98%
same,pest or weed control at 125 g/ha,"[9]; post-emergence, Postemergence",100%
same,pest or weed control at 16 g/ha,"[9]; pre-emergence, Preemergence",100%
same,pest or weed control at 31 g/ha,"[9]; pre-emergence, Preemergence",100%
same,pest or weed control at 62 g/ha,"[9]; pre-emergence, Preemergence",100%
same,pest or weed control at 125 g/ha,"[9]; pre-emergence, Preemergence",100%
same,pest or weed control at 16 g/ha,"[10]; post-emergence, Postemergence",40%
same,pest or weed control at 31 g/ha,"[10]; post-emergence, Postemergence",50%
same,pest or weed control at 62 g/ha,"[10]; post-emergence, Postemergence",80%
same,pest or weed control at 125 g/ha,"[10]; post-emergence, Postemergence",100%
same,pest or weed control at 16 g/ha,"[10]; pre-emergence, Preemergence",20%
same,pest or weed control at 31 g/ha,"[10]; pre-emergence, Preemergence",35%
same,pest or weed control at 62 g/ha,"[10]; pre-emergence, Preemergence",95%
same,pest or weed control at 125 g/ha,"[10]; pre-emergence, Preemergence",100%

# Reference: patent publication US10131652B2, “Pyrimidinyloxy benzene derivatives as herbicides” (E. I. DU PONT DE NEMOURS AND COMPANY, priority 2014, dated 2018)
